Results on 12 compounds are retold here after patent US12539292B2, “BRM targeting compounds and associated methods of use” (Arvinas Operations, Inc., priority 2018, dated 2026).

Where two headings read alike, the source gives them in different places.

The test has as its target T1, BRM (Homo sapiens, UniProt P51531).
T1 construct: In-Cell Western Screen of BRM Degradation in SW1573 Cells; endogenous in cells; host or cells: SW1573
Briefly: In-cell Western screen of BRM degradation in SW1573 cells (Dmax and DC50). The format is cell-based. The settings on record: BRM degradation, SW1573 cells, Table 2D; for Dmax: read-out: **Dmax (%) (% degraded). The procedure, abridged:
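SW1573, overnight cpd exposure (18-20 h), 0.1% DMSO final. PFA fix, 0.5% Triton permeabilization, block; IR secondaries at 800/680 nm. Odyssey read → Dmax, DC50.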

T1 sequence (P51531 whole entry): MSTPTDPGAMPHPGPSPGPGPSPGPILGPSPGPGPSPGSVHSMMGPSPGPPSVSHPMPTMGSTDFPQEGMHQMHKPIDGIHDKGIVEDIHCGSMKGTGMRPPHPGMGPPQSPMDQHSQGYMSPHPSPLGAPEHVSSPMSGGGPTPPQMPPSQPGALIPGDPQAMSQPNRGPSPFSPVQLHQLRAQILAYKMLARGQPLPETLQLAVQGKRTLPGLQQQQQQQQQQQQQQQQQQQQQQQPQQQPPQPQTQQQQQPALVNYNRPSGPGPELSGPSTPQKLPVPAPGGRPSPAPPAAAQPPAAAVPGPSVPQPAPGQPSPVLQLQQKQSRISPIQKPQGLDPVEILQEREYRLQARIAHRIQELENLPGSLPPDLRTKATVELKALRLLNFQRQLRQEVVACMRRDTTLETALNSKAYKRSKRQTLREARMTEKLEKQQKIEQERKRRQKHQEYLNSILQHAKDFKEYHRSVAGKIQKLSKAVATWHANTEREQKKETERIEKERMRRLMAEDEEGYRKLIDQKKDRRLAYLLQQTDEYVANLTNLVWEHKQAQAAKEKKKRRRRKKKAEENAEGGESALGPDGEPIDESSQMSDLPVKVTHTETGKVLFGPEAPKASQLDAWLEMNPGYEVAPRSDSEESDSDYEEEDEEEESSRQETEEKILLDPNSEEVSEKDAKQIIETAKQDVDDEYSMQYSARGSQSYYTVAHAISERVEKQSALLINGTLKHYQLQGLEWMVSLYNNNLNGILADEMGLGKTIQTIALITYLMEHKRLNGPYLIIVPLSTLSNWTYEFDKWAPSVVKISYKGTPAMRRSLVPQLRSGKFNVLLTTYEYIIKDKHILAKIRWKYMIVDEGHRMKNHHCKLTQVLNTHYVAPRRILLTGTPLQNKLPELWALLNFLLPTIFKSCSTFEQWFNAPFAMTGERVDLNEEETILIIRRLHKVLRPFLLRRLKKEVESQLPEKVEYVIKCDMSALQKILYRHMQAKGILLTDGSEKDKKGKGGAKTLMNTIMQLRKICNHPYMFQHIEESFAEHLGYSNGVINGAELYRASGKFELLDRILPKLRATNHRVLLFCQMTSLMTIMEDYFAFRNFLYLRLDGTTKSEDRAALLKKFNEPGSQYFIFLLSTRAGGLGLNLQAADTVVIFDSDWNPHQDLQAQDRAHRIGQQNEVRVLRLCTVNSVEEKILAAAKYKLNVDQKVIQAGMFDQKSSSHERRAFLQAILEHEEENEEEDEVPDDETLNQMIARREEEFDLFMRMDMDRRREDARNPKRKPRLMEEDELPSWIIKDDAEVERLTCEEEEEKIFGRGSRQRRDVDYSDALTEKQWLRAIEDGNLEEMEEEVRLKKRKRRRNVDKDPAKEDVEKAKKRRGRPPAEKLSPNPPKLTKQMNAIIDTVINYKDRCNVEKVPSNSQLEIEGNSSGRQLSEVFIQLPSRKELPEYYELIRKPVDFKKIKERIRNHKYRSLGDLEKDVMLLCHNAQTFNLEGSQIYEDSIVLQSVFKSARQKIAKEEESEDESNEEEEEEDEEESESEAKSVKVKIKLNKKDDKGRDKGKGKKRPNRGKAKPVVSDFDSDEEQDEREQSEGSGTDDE

In the case of `Cc1ncsc1-c1ccc([C@H](C)NC(=O)[C@@H]2C[C@@H](O)CN2C(=O)[C@@H](c2cc(N3CCC(CN4CCC(O[C@H]5C[C@H](Oc6cc(N7C8CCC7CN(c7cc(-c9ccccc9)nnc7N)C8)ccn6)C5)CC4)CC3)no2)C(C)C)cc1` [compound 605, (2S,4R)-1-((2R)-2-(3-(4-((4-((1r,3r)-3-((4-(3-(3-amino-6-phenylpyridazin-4-yl)-3,8-diazabicyclo[3.2.1]octan-8-yl)pyridin-2-yl)oxy)cyclobutoxy)piperidin-1-yl)methyl)piperidin-1-yl)isoxazol-5-yl)-3-methylbutanoyl)-4-hydroxy-N-((S)-1-(4-(4-methylthiazol-5-yl)phenyl)ethyl)pyrrolidine-2-carboxamide], the DC50 was above 30 nM.

For `Cc1nccn1-c1ccc([C@H](C)NC(=O)[C@@H]2C[C@@H](O)CN2C(=O)[C@@H](c2cc(N3CCC(CN4CCC(O[C@H]5C[C@H](Oc6cc(N7C8CCC7CN(c7cc(-c9ccccc9O)nnc7N)C8)ccn6)C5)CC4)CC3)no2)C(C)C)cc1` [compound 606, (2S,4R)-1-((2S)-2-(3-(4-((4-((1r,3r)-3-((4-(3-(3-amino-6-(2-hydroxyphenyl)pyridazin-4-yl)-3,8-diazabicyclo[3.2.1]octan-8-yl)pyridin-2-yl)oxy)cyclobutoxy)piperidin-1-yl)methyl)piperidin-1-yl)isoxazol-5-yl)-3-methylbutanoyl)-4-hydroxy-N-((S)-1-(4-(2-methyl-1H-imidazol-1-yl)phenyl)ethyl)pyrrolidine-2-carboxamide], the Dmax is above 75%. Also, the DC50 (read-out: *DC50) lay in the range of 10 to 30 nM.

Regarding `Cc1nccn1-c1ccc([C@H](C)NC(=O)[C@@H]2C[C@@H](O)CN2C(=O)C(c2cc(N3CCC(CN4CCC(O[C@H]5C[C@H](Oc6cc(N7C8CCC7CN(c7cc(-c9ccccc9O)nnc7N)C8)ccn6)C5)CC4)CC3)no2)C(C)C)cc1` (stereo partly drawn) [compound 607, (2S,4R)-1-((2R)-2-(3-(4-((4-((1r,3r)-3-((4-(3-(3-amino-6-(2-hydroxyphenyl)pyridazin-4-yl)-3,8-diazabicyclo[3.2.1]octan-8-yl)pyridin-2-yl)oxy)cyclobutoxy)piperidin-1-yl)methyl)piperidin-1-yl)isoxazol-5-yl)-3-methylbutanoyl)-4-hydroxy-N-((S)-1-(4-(2-methyl-1H-imidazol-1-yl)phenyl)ethyl)pyrrolidine-2-carboxamide], the Dmax was above 75%. Also, the DC50 (read-out: *DC50) is below 2.5 nM.

On to `Cc1ncsc1-c1ccc([C@H](C)NC(=O)[C@@H]2C[C@@H](O)CN2C(=O)[C@@H](c2cc(N3CCC(CN4CCN(CC5CC(Oc6cc(N7C8CC[C@@H]7CN(c7cc(-c9ccccc9O)nnc7N)C8)ccn6)C5)CC4)CC3)no2)C(C)C)cc1` (stereo partly drawn) [compound 608, (2S,4R)-1-((2R)-2-(3-(4-((4-(((1r,3r)-3-((4-(3-(3-amino-6-(2-hydroxyphenyl)pyridazin-4-yl)-3,8-diazabicyclo[3.2.1]octan-8-yl)pyridin-2-yl)oxy)cyclobutyl)methyl)piperazin-1-yl)methyl)piperidin-1-yl)isoxazol-5-yl)-3-methylbutanoyl)-4-hydroxy-N-((S)-1-(4-(4-methylthiazol-5-yl)phenyl)ethyl)pyrrolidine-2-carboxamide], for which the “**Dmax (%) (% degraded)” value is on record as “A (A > 75)”. Where the note is “read-out: *DC50”, the DC50 was below 2.5 nM.

Consider `Cc1ncsc1-c1ccc([C@H](C)NC(=O)[C@@H]2C[C@@H](O)CN2C(=O)[C@H](c2cc(N3CCC(CN4CCC(O[C@H]5C[C@H](CN6CCOC7(CCN(c8cc(-c9ccccc9O)nnc8N)CC7)C6)C5)CC4)CC3)no2)C(C)C)cc1` [compound 609, (2S,4R)-1-((S)-2-(3-(4-((4-((1r,3r)-3-((9-(3-amino-6-(2-hydroxyphenyl)pyridazin-4-yl)-1-oxa-4,9-diazaspiro[5.5]undecan-4-yl)methyl)cyclobutoxy)piperidin-1-yl)methyl)piperidin-1-yl)isoxazol-5-yl)-3-methylbutanoyl)-4-hydroxy-N-((S)-1-(4-(4-methylthiazol-5-yl)phenyl)ethyl)pyrrolidine-2-carboxamide], for which the 50% degradation concentration (DC50) (read-out: *DC50) is above 30 nM.

Regarding `Cc1ncsc1-c1ccc([C@H](C)NC(=O)[C@@H]2C[C@@H](O)CN2C(=O)C(c2cc(N3CCC(CN4CCC(O[C@H]5C[C@H](CN6CCOC7(CCN(c8cc(-c9ccccc9O)nnc8N)CC7)C6)C5)CC4)CC3)no2)C(C)C)cc1` (stereo partly drawn) [compound 610, (2S,4R)-1-((R)-2-(3-(4-((4-((1r,3r)-3-((9-(3-amino-6-(2-hydroxyphenyl)pyridazin-4-yl)-1-oxa-4,9-diazaspiro[5.5]undecan-4-yl)methyl)cyclobutoxy)piperidin-1-yl)methyl)piperidin-1-yl)isoxazol-5-yl)-3-methylbutanoyl)-4-hydroxy-N-((S)-1-(4-(4-methylthiazol-5-yl)phenyl)ethyl)pyrrolidine-2-carboxamide], the Dmax is above 75%. In addition, the DC50 (read-out: *DC50) was below 2.5 nM.

In the case of `Cc1ncsc1-c1ccc([C@@H](NC(=O)[C@@H]2C[C@@H](O)CN2C(=O)[C@H](c2cc(N3CCC(CN4CCC(O[C@H]5C[C@H](Oc6cc(N7C8CCC7CN(c7cc(-c9ccccc9O)nnc7N)C8)ccn6)C5)CC4)CC3)no2)C(C)C)C(=O)N(C)C2CCC2)cc1` [compound 611, (2S,4R)-1-((2S)-2-(3-(4-((4-((1r,3r)-3-((4-(3-(3-amino-6-(2-hydroxyphenyl)pyridazin-4-yl)-3,8-diazabicyclo[3.2.1]octan-8-yl)pyridin-2-yl)oxy)cyclobutoxy)piperidin-1-yl)methyl)piperidin-1-yl)isoxazol-5-yl)-3-methylbutanoyl)-N-((R)-2-(cyclobutyl(methyl)amino)-1-(4-(4-methylthiazol-5-yl)phenyl)-2-oxoethyl)-4-hydroxypyrrolidine-2-carboxamide], the DC50 (read-out: *DC50) was above 30 nM.

Consider `Cc1ncsc1-c1ccc([C@@H](NC(=O)[C@@H]2C[C@@H](O)CN2C(=O)[C@H](c2cc(N3CCC(CN4CCC(O[C@H]5C[C@H](Oc6cc(N7C8CCC7CN(c7cc(-c9ccccc9O)nnc7N)C8)ccn6)C5)CC4)CC3)no2)C(C)C)C(=O)N(C)C2CCC2)cc1` [compound 612, (2S,4R)-1-((2R)-2-(3-(4-((4-((1r,3r)-3-((4-(3-(3-amino-6-(2-hydroxyphenyl)pyridazin-4-yl)-3,8-diazabicyclo[3.2.1]octan-8-yl)pyridin-2-yl)oxy)cyclobutoxy)piperidin-1-yl)methyl)piperidin-1-yl)isoxazol-5-yl)-3-methylbutanoyl)-N-((R)-2-(cyclobutyl(methyl)amino)-1-(4-(4-methylthiazol-5-yl)phenyl)-2-oxoethyl)-4-hydroxypyrrolidine-2-carboxamide], for which the Dmax was above 75%. The DC50 (read-out: *DC50) was below 2.5 nM.

As to `Cc1ncsc1-c1ccc([C@H](C)NC(=O)[C@@H]2C[C@@H](O)CN2C(=O)[C@H](c2cc(OCCCOc3cc(N4C5CCC4CN(c4cc(-c6ccccc6O)nnc4N)C5)ccn3)no2)C(C)C)cc1` [compound 613, (2S,4R)-1-((2S)-2-(3-(3-((4-(3-(3-amino-6-(2-hydroxyphenyl)pyridazin-4-yl)-3,8-diazabicyclo[3.2.1]octan-8-yl)pyridin-2-yl)oxy)propoxy)isoxazol-5-yl)-3-methylbutanoyl)-4-hydroxy-N-((S)-1-(4-(4-methylthiazol-5-yl)phenyl)ethyl)pyrrolidine-2-carboxamide], the 50% degradation concentration (DC50) (read-out: *DC50) is above 30 nM.

In the case of `Cc1ncsc1-c1ccc([C@H](C)NC(=O)[C@@H]2C[C@@H](O)CN2C(=O)[C@@H](c2cc(OCCCOc3cc(N4C5CCC4CN(c4cc(-c6ccccc6O)nnc4N)C5)ccn3)no2)C(C)C)cc1` [compound 614, (2S,4R)-1-((2R)-2-(3-(3-((4-(3-(3-amino-6-(2-hydroxyphenyl)pyridazin-4-yl)-3,8-diazabicyclo[3.2.1]octan-8-yl)pyridin-2-yl)oxy)propoxy)isoxazol-5-y1)-3-methylbutanoyl)-4-hydroxy-N-((S)-1-(4-(4-methylthiazol-5-yl)phenyl)ethyl)pyrrolidine-2-carboxamide], the greatest degradation seen (Dmax) is above 75%. Under “read-out: *DC50”, the DC50 was below 2.5 nM.

As for `Cc1ncsc1-c1ccc([C@H](C)NC(=O)[C@@H]2C[C@@H](O)CN2C(=O)[C@H](c2cc(N3CCC(OC4CCN([C@H]5C[C@H](CN6CCOC7(CCN(c8cc(-c9ccccc9O)nnc8N)CC7)C6)C5)CC4)CC3)no2)C(C)C)cc1` [compound 615, (2S,4R)-1-((S)-2-(3-(4-((1-((1r,3S)-3-((9-(3-amino-6-(2-hydroxyphenyl)pyridazin-4-yl)-1-oxa-4,9-diazaspiro[5.5]undecan-4-yl)methyl)cyclobutyl)piperidin-4-yl)oxy)piperidin-1-yl)isoxazol-5-yl)-3-methylbutanoyl)-4-hydroxy-N-((S)-1-(4-(4-methylthiazol-5-yl)phenyl)ethyl)pyrrolidine-2-carboxamide], the half-maximal degradation concentration (DC50) (read-out: *DC50) was above 30 nM.

On to `Cc1ncsc1-c1ccc([C@H](C)NC(=O)[C@@H]2C[C@@H](O)CN2C(=O)[C@@H](c2cc(N3CCC(OC4CCN([C@H]5C[C@H](CN6CCOC7(CCN(c8cc(-c9ccccc9O)nnc8N)CC7)C6)C5)CC4)CC3)no2)C(C)C)cc1` [compound 616, (2S,4R)-1-((R)-2-(3-(4-((1-((1r,3R)-3-((9-(3-amino-6-(2-hydroxyphenyl)pyridazin-4-yl)-1-oxa-4,9-diazaspiro[5.5]undecan-4-yl)methyl)cyclobutyl)piperidin-4-yl)oxy)piperidin-1-yl)isoxazol-5-yl)-3-methylbutanoyl)-4-hydroxy-N-((S)-1-(4-(4-methylthiazol-5-yl)phenyl)ethyl)pyrrolidine-2-carboxamide], for which the Dmax is above 75%. Further, where the note is “read-out: *DC50”, the DC50 was below 2.5 nM.
